Data from PubChem BioAssay AID1919010 (Molecular Pharmacology Branch, DTP, NCI, 2023).
Each block holds one compound with its values, some of them ahead of it.

Test system: Hs578T complex spheroid growth, percent test/control
Experiment: Anticancer human tumor Hs578T cell line growth inhibition [AhR];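 further: luminescent viability signal as a proxy for spheroid growth; spheroids exposed to agents for one week after three days of growth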
Conditions: for IC50: curve of first compound; for viability, T/C: stronger effect = lower value
Excerpt: Multicellular complex tumor spheroid response to aryl hydrocarbon receptor antagonists in combination with a variety of drugs and investigational agents in selected tumor cell lines
The current study was undertaken to assess response to aryl hydrocarbon receptor antagonists in combination with standard-of-care drugs and investigational agents in solid tumor complex spheroid models. Complex spheroids include a stromal component modeled by human endothelial cells (HUVEC) and fibroblasts modeled by human mesenchymal stem cells (MSCs). The concentration ranges selected for each drug and investigational agent were based upon clinically achievable concentrations if the clinical Cmax of the agent was known.
Compounds. The drugs and investigational agents: BAY 2416964 (NSC825713), GNF351 (NSC835774), CH-223191 (NSC835775), CPI-455 (NSC825282), aza-TdCyd (NSC777586), decitabine (NSC127716), belinostat (NSC758774), entinostat (NSC756642), pevonedistat (NSC761192), tazemetostat (NSC777109), talazoparib (NSC765396), olaparib (NSC753686), selinexor (NSC780203), nedisertib (M3814, NSC802822), bortezomib (NSC756655), venetoclax (NSC766270), doxorubicin (NSC123127), elimusertib (BAY189344, NSC800525), ceralasertib (AZD6738, NSC777638), TAK-243 (NSC785004), alisertib (NSC759677), etoposide (NSC141540), topotecan (NSC609699), eribulin (NSC707389), gemcitabine (NSC613327), carboplatin (NSC241240), cisplatin (NSC119875), and SN-38 (NSC673596) were obtained from the National Cancer Institute (NCI) Developmental Therapeutics Program Chemical Repository (32). The FDA-approved anticancer drug set is available from the Developmental Therapeutics Program at https://dtp.cancer.gov/organization/dscb/obtaining/available plates.htm. […] The stock solutions were prepared in dimethyl sulfoxide (DMSO, Sigma-Aldrich, St. Louis, MO, cat. D2650), except for the platinum compounds which were prepared in saline (Quality Biological, Gaithersburg, MD, cat. 114-055-101), at 800-fold the tested concentration and stored at -70 degrees C prior to their use. All drugs and investigational agents were tested over a range starting from a high concentration at or near the clinical Cmax and decreasing in half-log increments. If the clinical Cmax for an agent had not been determined, the highest concentration tested was 10 microM (Table 1).
Cell Culture. All cells were maintained in an incubator at 37 degrees C and 5% CO2 with 95% humidity. The PDC lines were cultured according to standard operating procedures established by the NCI PDMR (https://pdmr.cancer.gov). Briefly, all PDCs were thawed and cultured in Matrigel-coated flasks prepared with a working solution of 1X Ham's F-12 nutrient mix, without supplementation (Invitrogen, Waltham, MA, cat. 11765054), 100 U/mL penicillin-streptomycin (Invitrogen, cat. 15140122), and 2.5% Matrigel (Corning Inc., Corning, NY, cat. 354248) for the first three passages. All PDCs were cultured in complete DMEM/F-12 media containing advanced DMEM/F-12 (Invitrogen, cat. 12634028), 4.9% defined fetal bovine serum, heat inactivated (HyClone Laboratories Inc., Logan, UT, cat. SH30070.03HI), 389 ng/mL hydrocortisone (Sigma-Aldrich, cat. H4001), 9.7 ng/mL human EGF recombinant protein (Invitrogen, cat. PHG0313), 23.4 microg/mL adenine (Sigma-Aldrich, cat. A2786), 97.3 U/mL penicillin-streptomycin (Invitrogen, cat. 15140122), 1.9 mM L-glutamine (Invitrogen, cat. 25030081), and 9.7 microM Y-27632 dihydrochloride (Tocris Bioscience, Bristol, United Kingdom, cat. 1254). The PDCs were cultured in complete DMEM/F12 media without 10 microM Y-27632 dihydrochloride for at least two passages prior to the screen. The established cell lines NCI-H1341 and […] were cultured in DMEM/F-12, HEPES (Invitrogen, cat. 11330032), 5% defined fetal bovine serum (HyClone Laboratories Inc., cat. SH30070.03), ITS premix universal culture supplement [insulin (5 microg/mL), transferrin (5 microg/mL), and selenious acid (5 ng/mL)] […]

IC50 (second compound 0.1 µM): > 300 nM | IC50 (second compound 0.316 µM): > 300 nM | IC50 (second compound 1 µM): > 300 nM | IC50 (second compound 3.16 µM): > 300 nM | IC50 (second compound 10 µM): < 0.949 nM
Structure (SMILES): Nc1ncn(C2CC(O)C(CO)S2)c(=O)n1 (stereo not given) + Cc1cncc(-c2nc(NCCc3c[nH]c4ccccc34)c3ncn(C(C)C)c3n2)c1
viability, T/C (second compound 0.1 µM, first compound 0.000949 µM): 110% | viability, T/C (second compound 0.1 µM, first compound 0.003 µM): 119% | viability, T/C (second compound 0.1 µM, first compound 0.00949 µM): 117% | viability, T/C (second compound 0.1 µM, first compound 0.03 µM): 108% | viability, T/C (second compound 0.1 µM, first compound 0.0949 µM): 104% | viability, T/C (second compound 0.1 µM, first compound 0.3 µM): 92.9% | viability, T/C (second compound 0.316 µM, first compound 0.000949 µM): 116% | viability, T/C (second compound 0.316 µM, first compound 0.003 µM): 114% | viability, T/C (second compound 0.316 µM, first compound 0.00949 µM): 115% | viability, T/C (second compound 0.316 µM, first compound 0.03 µM): 107% | viability, T/C (second compound 0.316 µM, first compound 0.0949 µM): 108% | viability, T/C (second compound 0.316 µM, first compound 0.3 µM): 93.9% | viability, T/C (second compound 1 µM, first compound 0.000949 µM): 92.2% | viability, T/C (second compound 1 µM, first compound 0.003 µM): 95.3% | viability, T/C (second compound 1 µM, first compound 0.00949 µM): 91% | viability, T/C (second compound 1 µM, first compound 0.03 µM): 82.4% | viability, T/C (second compound 1 µM, first compound 0.0949 µM): 88.8% | viability, T/C (second compound 1 µM, first compound 0.3 µM): 86.4% | viability, T/C (second compound 3.16 µM, first compound 0.000949 µM): 46.2% | viability, T/C (second compound 3.16 µM, first compound 0.003 µM): 54.2% | viability, T/C (second compound 3.16 µM, first compound 0.00949 µM): 55.5% | viability, T/C (second compound 3.16 µM, first compound 0.03 µM): 49.4% | viability, T/C (second compound 3.16 µM, first compound 0.0949 µM): 47% | viability, T/C (second compound 3.16 µM, first compound 0.3 µM): 55% | viability, T/C (second compound 10 µM, first compound 0.000949 µM): 14.1% | viability, T/C (second compound 10 µM, first compound 0.003 µM): 7.61% | viability, T/C (second compound 10 µM, first compound 0.00949 µM): 7.86% | viability, T/C (second compound 10 µM, first compound 0.03 µM): 8.27% | viability, T/C (second compound 10 µM, first compound 0.0949 µM): 7.59% | viability, T/C (second compound 10 µM, first compound 0.3 µM): 7.47%

IC50 (second compound 0.1 µM): > 1000 nM | IC50 (second compound 0.316 µM): > 1000 nM | IC50 (second compound 1 µM): > 1000 nM | IC50 (second compound 3.16 µM): > 1000 nM | IC50 (second compound 10 µM): > 1000 nM
Structure (SMILES): Nc1ncn(C2CC(O)C(CO)O2)c(=O)n1 (stereo not given) + Cc1ccccc1N=Nc1ccc(NC(=O)c2ccnn2C)c(C)c1
viability, T/C (second compound 0.1 µM, first compound 0.00316 µM): 103% | viability, T/C (second compound 0.1 µM, first compound 0.01 µM): 109% | viability, T/C (second compound 0.1 µM, first compound 0.0316 µM): 97.2% | viability, T/C (second compound 0.1 µM, first compound 0.1 µM): 98% | viability, T/C (second compound 0.1 µM, first compound 0.316 µM): 99.2% | viability, T/C (second compound 0.1 µM, first compound 1 µM): 90% | viability, T/C (second compound 0.316 µM, first compound 0.00316 µM): 97.5% | viability, T/C (second compound 0.316 µM, first compound 0.01 µM): 97.2% | viability, T/C (second compound 0.316 µM, first compound 0.0316 µM): 96.8% | viability, T/C (second compound 0.316 µM, first compound 0.1 µM): 98.9% | viability, T/C (second compound 0.316 µM, first compound 0.316 µM): 85.8% | viability, T/C (second compound 0.316 µM, first compound 1 µM): 81.6% | viability, T/C (second compound 1 µM, first compound 0.00316 µM): 95.4% | viability, T/C (second compound 1 µM, first compound 0.01 µM): 92% | viability, T/C (second compound 1 µM, first compound 0.0316 µM): 106% | viability, T/C (second compound 1 µM, first compound 0.1 µM): 91.8% | viability, T/C (second compound 1 µM, first compound 0.316 µM): 86.2% | viability, T/C (second compound 1 µM, first compound 1 µM): 84.9% | viability, T/C (second compound 3.16 µM, first compound 0.00316 µM): 83.3% | viability, T/C (second compound 3.16 µM, first compound 0.01 µM): 87.2% | viability, T/C (second compound 3.16 µM, first compound 0.0316 µM): 85.9% | viability, T/C (second compound 3.16 µM, first compound 0.1 µM): 90.8% | viability, T/C (second compound 3.16 µM, first compound 0.316 µM): 78.5% | viability, T/C (second compound 3.16 µM, first compound 1 µM): 79.8% | viability, T/C (second compound 10 µM, first compound 0.00316 µM): 63% | viability, T/C (second compound 10 µM, first compound 0.01 µM): 70.5% | viability, T/C (second compound 10 µM, first compound 0.0316 µM): 60.9% | viability, T/C (second compound 10 µM, first compound 0.1 µM): 66% | viability, T/C (second compound 10 µM, first compound 0.316 µM): 63.4% | viability, T/C (second compound 10 µM, first compound 1 µM): 68%
